The results in this text go back to ChEMBL document CHEMBL1128418, “Synthesis and activity against multidrug resistance in Chinese hamster ovary cells of new acridone-4-carboxamides” (J Med Chem, 1995).

In general, EC50 refers to the concentration needed to bring the measured effect to its halfway point.

The first test deals with CHRC5 cell line. Nature of the test: Reversal of sensitivity of multidrug resistant chinese hamster ovary cell line CHRC/5 expressed as concentration that restores 50% of cytotoxic activity of 5 ug/mL toward doxorubicin. Format: functional, cell-based. The settings on record: Cricetulus griseus.
As to `COc1ccc(CCN(C)CCCC(C#N)(c2ccc(OC)c(OC)c2)C(C)C)cc1OC` (stereo not given), the EC50 is 3000 nM.

Still in this test, the particulars now being: Cricetulus griseus, read-out: EC50.
Consider `COc1ccc(CN(C)CCCc2ccc(NC(=O)c3cccc4c(O)c5ccccc5nc34)cc2)cc1OC`, for which the EC50 came to 60 nM.

As to `COc1ccc(CN(C)CCc2ccc(NC(=O)c3cccc4c(O)c5cccc(OC)c5nc34)cc2)cc1OC`, the EC50 was 21 nM.

As for `COc1ccc(CCN(C)CCOc2ccc(NC(=O)c3cccc4c(=O)c5ccccc5oc34)cc2)cc1OC`, the EC50 was 180 nM.

As for `COc1ccc(CCN(C)CCOc2ccc(NC(=O)c3cccn4c(=O)c5ccccc5nc34)cc2)cc1OC`, the EC50 came to 210 nM.

`COc1ccc(CN(C)CCc2ccc(NC(=O)c3cccc4c(O)c5ccccc5nc34)cc2)cc1OC`: the EC50 is 27 nM.

On to `COc1ccc(CN(C)CCc2ccc(NC(=O)c3cccc4c(O)c5cccc([N+](=O)[O-])c5nc34)cc2)cc1OC`, for which the EC50 turned out to be 195 nM.

Consider `COc1ccc(CN(C)CCc2ccc(NC(=O)c3cccc4c(O)c5cccc(F)c5nc34)c(C)c2)cc1OC`, for which the 50% effective concentration (EC50) was 88 nM.

For `COc1cc2c(cc1OC)CN(CCc1ccccc1NC(=O)c1cccc3c(O)c4cccc(OC)c4nc13)CC2`, the EC50 is 305 nM.

Consider `CSc1ccc(CN(C)CCOc2ccc(NC(=O)c3cccc4c(O)c5ccccc5nc34)cc2)cc1`, for which the EC50 was 690 nM.

On to `COc1ccc(CN(C)CCOc2ccc(NC(=O)c3cccc4c(O)c5cccc(OC)c5nc34)c(C)c2)cc1OC`, for which the EC50 was determined as 280 nM.

In the case of `COc1ccc(CN(C)C/C=C/c2ccc(NC(=O)c3cccc4c(O)c5ccccc5nc34)cc2)cc1OC`, the EC50 was found to be 270 nM.

`COc1ccc(CN(C)CCCc2cccc(NC(=O)c3cccc4c(O)c5cccc(OC)c5nc34)c2)cc1OC`: the EC50 was 45 nM.

Take `COc1ccc(CCN(C)CCOc2ccc(NC(=O)c3cccc4c(=O)c5ccccc5sc34)cc2)cc1OC`: the EC50 was 90 nM.

Consider `CCN(CCOc1ccc(NC(=O)c2cccc3c(=O)c4ccccc4[nH]c23)cc1)Cc1ccccc1`, for which the EC50 was 110 nM.

Take `COc1ccc(CCN(C)CCOc2ccc(NC(=O)c3cccc4c3Oc3ccccc3O4)cc2)cc1OC`: the EC50 was found to be 460 nM.

Turning to `O=C(Nc1ccc(OCCCN2CCc3ccccc3C2)cc1)c1cccc2c(=O)c3ccccc3[nH]c12`, the 50% effective concentration (EC50) is 210 nM.

Consider `CN(CCOc1ccc(NC(=O)c2cccc3c(=O)c4ccccc4[nH]c23)cc1)Cc1ccc(F)cc1`, for which the EC50 came to 930 nM.

With `COc1ccc(CCN(C)CCOc2ccc(NC(=O)c3cccc4c3C(=O)c3ccccc3C4=O)cc2)cc1OC`, the EC50 came to 1500 nM.

Regarding `CN(CCOc1ccc(NC(=O)c2cccc3c(=O)c4ccccc4[nH]c23)cc1)Cc1ccc2c(c1)OCO2`, the EC50 amounted to 550 nM.

On to `COc1ccc(CN(C)CCOc2ccc(NC(=O)c3cccc4c(=O)c5ccccc5[nH]c34)cc2)cc1`, for which the EC50 was 650 nM.

`COc1ccc(CCN(C)CCOc2ccc(NC(=O)c3cccc4c3Nc3ccccc3S4)cc2)cc1OC`: the EC50 was 180 nM.

Take `CN(CCOc1ccc(NC(=O)c2cccc3c(=O)c4ccccc4[nH]c23)cc1)Cc1ccccc1`: the EC50 turned out to be 720 nM.

Regarding `Cc1ccc(CN(C)CCOc2ccc(NC(=O)c3cccc4c(=O)c5ccccc5[nH]c34)cc2)cc1`, the EC50 came out at 240 nM.

For the compound `COc1ccccc1CN(C)CCOc1ccc(NC(=O)c2cccc3c(=O)c4ccccc4[nH]c23)cc1`, the EC50 is 510 nM.

In the case of `COc1ccc(CNCCCOc2ccc(NC(=O)c3cccc4c(=O)c5ccccc5[nH]c34)cc2)cc1OC`, the EC50 worked out at 525 nM.

On to `COc1cc2c(cc1OC)CN(CCCOc1ccc(NC(=O)c3cccc4c(=O)c5ccccc5[nH]c34)cc1)CC2`, for which the EC50 came out at 50 nM.

Turning to `CN(CCOc1ccc(NC(=O)c2cccc3c(=O)c4ccccc4[nH]c23)cc1)Cc1ccc(C(F)(F)F)cc1`, the EC50 was 800 nM.

Consider `COc1cc2c(cc1OC)CN(CCc1ccc(NC(=O)c3cccc4c(=O)c5cccc(OC)c5[nH]c34)cc1)CC2`, for which the EC50 came to 21 nM.

Take `COc1ccc(CN(C)Cc2ccc(NC(=O)c3cccc4c(O)c5ccccc5nc34)cc2)cc1OC`: the EC50 was 370 nM.

As to `COc1ccc(CN(C)CCOc2ccc(NC(=O)c3cccc4c(=O)cc(-c5ccccc5)[nH]c34)cc2)cc1OC`, the EC50 is 330 nM.

Turning to `COc1ccc(CCN(C)CCOc2ccc(NC(=O)c3cccc4c(Cl)c5ccccc5nc34)cc2)cc1OC`, the EC50 came out at 660 nM.

On to `COc1ccc(CCN(C)CCCOc2ccc(NC(=O)c3cccc4c(=O)c5ccccc5[nH]c34)cc2)cc1OC`, for which the EC50 stood at 90 nM.

In the case of `COc1ccc(CN(C)CCc2ccccc2NC(=O)c2cccc3c(O)c4cccc(OC)c4nc23)cc1OC`, the EC50 worked out at 465 nM.

For `COc1cc2c(cc1OC)CN(CCCc1cccc(NC(=O)c3cccc4c(O)c5cccc(OC)c5nc34)c1)CC2`, the EC50 was found to be 48 nM.

For the compound `COc1cc2c(cc1OC)CN(CCc1cccc(NC(=O)c3cccc4c(O)c5cccc(OC)c5nc34)c1)CC2`, the EC50 amounted to 155 nM.

Turning to `COc1ccc(CN(C)CCc2ccc(NC(=O)c3cccc4c(O)c5cccc(C)c5nc34)cc2)cc1OC`, the EC50 was found to be 21 nM.

For the compound `COc1ccc(CN(C)CCCOc2ccc(NC(=O)c3cccc4c(O)c5cccc(F)c5nc34)c(C)c2)cc1OC`, the EC50 was found to be 63 nM.

With `COc1ccc(CN(C)CCCSc2ccc(NC(=O)c3cccc4c(O)c5ccccc5nc34)cc2)cc1OC`, the concentration giving a half-maximal response (EC50) was found to be 45 nM.

As for `COc1ccc(CN(C)CCc2ccc(NC(=O)c3cccc4c(O)c5cccc(F)c5nc34)cc2)cc1OC`, the EC50 is 18 nM.

In the case of `COc1ccc(CN(C)C/C=C/Cc2ccc(NC(=O)c3cccc4c(O)c5ccccc5nc34)cc2)cc1OC`, the EC50 was determined as 150 nM.

As to `COc1ccc(CN(C)CCCCc2ccc(NC(=O)c3cccc4c(O)c5cccc(N)c5nc34)cc2)cc1OC`, the EC50 was found to be 177 nM.

As to `CN(CCCCCCCCNC(=O)c1cccc2c(O)c3ccccc3nc12)Cc1ccccc1`, the EC50 was 1100 nM.

For the compound `COc1ccc(CN(C)CCOc2ccc(NC(=O)c3cccc4nc5ccccc5nc34)cc2)cc1OC`, the EC50 was found to be 330 nM.

In the case of `COc1cc(CCN(C)Cc2ccc(OC)c(OC)c2)ccc1NC(=O)c1cccc2c(O)c3cccc(F)c3nc12`, the EC50 came to 21 nM.

Turning to `COc1ccc(CN(C)CCOc2ccc(NC(=O)c3cccc4c(O)c5ccccc5nc34)cc2)cc1OC`, the EC50 turned out to be 90 nM.

Take `COc1ccc(CN(C)CCCCc2ccc(NC(=O)c3cccc4c(O)c5ccccc5nc34)cc2)cc1OC`: the EC50 amounted to 30 nM.

Take `COc1cc(CCCN(C)Cc2ccc(OC)c(OC)c2)ccc1NC(=O)c1cccc2c(O)c3cccc(OC)c3nc12`: the EC50 was 37 nM.

For the compound `COc1ccc(CN(C)CCCOc2ccc(NC(=O)c3cccc4c(O)c5ccccc5nc34)cc2)cc1OC`, the EC50 was found to be 36 nM.

With `COc1cc(OC)c2nc3c(C(=O)Nc4ccc(CCN(C)Cc5ccc(OC)c(OC)c5)cc4)cccc3c(O)c2c1`, the EC50 came to 22 nM.

Regarding `COc1cc(OCCCN(C)Cc2ccc(OC)c(OC)c2)ccc1NC(=O)c1cccc2c(O)c3cccc(F)c3nc12`, the EC50 is 30 nM.

As for `COc1cc(OCCCN(C)Cc2ccc(OC)c(OC)c2)ccc1NC(=O)c1cccc2c(O)c3cccc(C)c3nc12`, the EC50 is 40 nM.

For `CCc1cc(OCCCN(C)Cc2ccc(OC)c(OC)c2)ccc1NC(=O)c1cccc2c(O)c3cccc(F)c3nc12`, the EC50 came out at 90 nM.

Regarding `COc1ccc(CN(C)CCCc2ccccc2NC(=O)c2cccc3c(O)c4cccc(OC)c4nc23)cc1OC`, the EC50 was 585 nM.

Turning to `COc1cc(CCCN(C)Cc2ccc(OC)c(OC)c2)ccc1NC(=O)c1cccc2c(O)c3cccc(F)c3nc12`, the EC50 came out at 43 nM.

With `COc1ccc(CN(C)CCc2ccc(NC(=O)c3cccc4c(O)c5cccc(C)c5nc34)c(C)c2)cc1OC`, the EC50 turned out to be 80 nM.

On to `COc1ccc(CN(C)CCCOc2ccc(NC(=O)c3cccc4c(O)c5cccc(C)c5nc34)c(C)c2)cc1OC`, for which the EC50 is 93 nM.

Regarding `COc1ccc(CN(C)CCc2ccc(NC(=O)c3cccc4c(=O)c5ccccc5n(C)c34)cc2)cc1OC`, the half-maximal effective concentration (EC50) came to 210 nM.

Regarding `COc1ccc(CN(C)CCCCCc2ccc(NC(=O)c3cccc4c(O)c5ccccc5nc34)cc2)cc1OC`, the EC50 was 150 nM.

As to `COc1cc2c(cc1OC)CN(CCc1ccc(NC(=O)c3cccc4c(O)c5cccc(F)c5nc34)cc1)CC2`, the EC50 came to 33 nM.

Regarding `COc1ccc2nc3c(C(=O)Nc4ccc(CCCCN(C)Cc5ccc(OC)c(OC)c5)cc4)cccc3c(O)c2c1`, the EC50 came out at 120 nM.

The subject of a further test is CHRC5 cell line. Nature of the test: Reversal of sensitivity of multidrug resistant chinese hamster ovary cell line CHRC/5 expressed as concentration that restores 50% of cytotoxic activity of 5 ug/mL toward doxorubicin; Not active. Format: functional, cell-based, Cricetulus griseus.
Conditions: not given; call rule not given here
`COc1ccc(CCN(C)CCCN2CCN(C(=O)c3cccc4c(O)c5ccccc5nc34)CC2)cc1OC`: the EC50 result is “Not Active”.

In the case of `CCN(CC)CCOc1ccc(NC(=O)c2cccc3c(=O)c4ccccc4[nH]c23)cc1`, the EC50 entry is given as “Not Active”.

As to `COc1ccc(CCN(C)CCCN2CCC(NC(=O)c3cccc4c(=O)c5ccccc5[nH]c34)CC2)cc1OC`, the EC50 entry is “Not Active”.

The test system of another test is CHRC5 cell line. Nature of the test: Reversal of sensitivity of multidrug resistant chinese hamster ovary cell line CHRC/5 expressed as concentration that restores 50% of cytotoxic activity of 5 ug/mL toward doxorubicin; Toxic alone to cells at 5 uM. The class given is functional, cell-based, Cricetulus griseus.
Conditions: not given
`COc1ccc(CCN(C)CCOc2ccc(NC(=O)c3cccc4cc5ccccc5nc34)cc2)cc1OC`: the EC50 entry is listed as “Toxic”.
